What was measured:
[1] = target: association between RXRα and PKA (Homo sapiens, UniProt P19793); test: Co-immunoprecipitation of RXRα and catalytic subunit of PKA; assay type: cell-based; conditions: cells overexpressing PKA catalytic subunit, 10^-7 M
Protocol: Left panel: Cells were immunoprecipitated with anti-FLAG antibody, and the immunoprecipitates analyzed by SDS-PAGE and blotting with anti-PKA antibody. Right panel: Cells were immunoprecipitated with anti-PKA antibody, and the immunoprecipitates analyzed by SDS-PAGE and blotting with anti-FLAG antibody. […] PKA I and PKC I indicate inhibitors of PKA and PKC, respectively.
Immunoprecipitations with anti-Flag antibody were performed as described above. Immunoprecipitations with anti-PKA antibody (Transduction Laboratories; Lexington, Kentucky) were performed according to manufacturer's protocol. Western blotting with anti-PKA antibody and anti-Flag antibody also were performed according to manufacturer's protocol.

[2] = test system: MAP kinase (MAPK or ERK1/2); test: MAP kinase phosphorylation in cells treated with RXR agonist (anti-phospho-MAPK immunoblot); assay type: cell-based
Protocol: Cells were lysed directly with 1×SDS sample buffer and the cell lysates were separated by SDS-PAGE and immunoblotted with anti-phospho-MAPK. […] Differentiated 3T3 adipocytes were starved, stimulated, and manipulated as described above. […] Detection of MAP kinase phosphorylation was performed as described above with anti-phospho-MAPK from Promega.
MAP kinase (MAPK or ERK1/2) is activated by phosphorylation on Thr and Tyr residues of a TEY motif by the dual-specific MAP kinase kinase (MEK). […] As further shown in FIG. 3C, the response was dose-dependent (0.01-100 nM), with maximal stimulation at 0.1 nM.

SMILES: CC(/C=C/[C@@H]1C[C@]1(C)c1ccc2c(c1)C(C)(C)CCC2(C)C)=C\C(=O)O [AGN194204]
- amount of protein kinase A associated with RXRα [1]: did not increase the amount of protein kinase A associated with receptor
- duration of increased MAP kinase phosphorylation [2]: about 20 minutes
- phosphorylation of MAP kinase ([2]; 3T3-L1 fibroblasts): increased phosphorylation of MAP kinase
- concentration of maximal stimulation of MAP kinase phosphorylation ([2]; 3T3-L1 fibroblasts, 5 minutes): 0.1 nM
- dose-dependent range of MAP kinase response ([2]; 3T3-L1 fibroblasts, 5 minutes): 10 to 100000 pM
- time to increased MAP kinase phosphorylation ([2]; after treatment): ≤ 5 min
- phosphorylation of MAP kinase ([2]; differentiated 3T3 adipocytes): increased phosphorylation of MAP kinase
